# US6399643B1, “Spiroimidazolidine derivatives, their preparation, their use and pharmaceutical preparations formed therefrom” (Aventis Pharma Deutschland GmbH, priority 1999, dated 2002)
# Structures can show the parent of a compound that is named as a salt.
# Biological target: T1, interaction between VCAM-1 and VLA-4 (Homo sapiens, UniProt P05556+P13612)
# T1 construct: supplied in their natural form as surface molecules on human U937 cells; host or cells: human U937 cells (VLA-4, endogenous); the partner hVCAM-1(1-3)-IgG was made in house in transfected COS cells (ATCC CRL1651) and used as culture supernatant
# T1 sequence (P13612 34-1032): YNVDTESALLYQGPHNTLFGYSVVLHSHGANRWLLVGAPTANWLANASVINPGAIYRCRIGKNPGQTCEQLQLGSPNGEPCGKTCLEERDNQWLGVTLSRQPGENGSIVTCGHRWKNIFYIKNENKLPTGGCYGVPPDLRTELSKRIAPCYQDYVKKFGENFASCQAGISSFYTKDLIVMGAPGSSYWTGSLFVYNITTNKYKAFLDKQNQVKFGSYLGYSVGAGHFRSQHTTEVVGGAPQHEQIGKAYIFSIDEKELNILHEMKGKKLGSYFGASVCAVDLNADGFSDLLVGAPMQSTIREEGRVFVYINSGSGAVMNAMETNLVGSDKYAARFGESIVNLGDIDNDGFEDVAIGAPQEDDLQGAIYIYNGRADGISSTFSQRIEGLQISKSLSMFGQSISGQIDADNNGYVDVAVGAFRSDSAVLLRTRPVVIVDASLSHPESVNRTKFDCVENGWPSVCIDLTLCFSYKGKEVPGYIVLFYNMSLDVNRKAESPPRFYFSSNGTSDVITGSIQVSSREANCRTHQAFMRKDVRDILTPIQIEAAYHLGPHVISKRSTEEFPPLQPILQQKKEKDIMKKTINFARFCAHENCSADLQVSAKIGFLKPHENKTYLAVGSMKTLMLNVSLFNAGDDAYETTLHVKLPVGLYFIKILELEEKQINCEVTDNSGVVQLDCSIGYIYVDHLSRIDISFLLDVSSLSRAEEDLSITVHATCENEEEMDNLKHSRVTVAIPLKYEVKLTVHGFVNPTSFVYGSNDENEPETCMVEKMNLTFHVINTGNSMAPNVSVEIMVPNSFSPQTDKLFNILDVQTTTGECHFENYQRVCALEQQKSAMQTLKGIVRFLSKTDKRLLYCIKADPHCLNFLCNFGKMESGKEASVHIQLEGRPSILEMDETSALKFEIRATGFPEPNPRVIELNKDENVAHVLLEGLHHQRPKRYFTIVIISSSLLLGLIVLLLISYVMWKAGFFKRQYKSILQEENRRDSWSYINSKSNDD
# T1 sequence (P05556 21-798): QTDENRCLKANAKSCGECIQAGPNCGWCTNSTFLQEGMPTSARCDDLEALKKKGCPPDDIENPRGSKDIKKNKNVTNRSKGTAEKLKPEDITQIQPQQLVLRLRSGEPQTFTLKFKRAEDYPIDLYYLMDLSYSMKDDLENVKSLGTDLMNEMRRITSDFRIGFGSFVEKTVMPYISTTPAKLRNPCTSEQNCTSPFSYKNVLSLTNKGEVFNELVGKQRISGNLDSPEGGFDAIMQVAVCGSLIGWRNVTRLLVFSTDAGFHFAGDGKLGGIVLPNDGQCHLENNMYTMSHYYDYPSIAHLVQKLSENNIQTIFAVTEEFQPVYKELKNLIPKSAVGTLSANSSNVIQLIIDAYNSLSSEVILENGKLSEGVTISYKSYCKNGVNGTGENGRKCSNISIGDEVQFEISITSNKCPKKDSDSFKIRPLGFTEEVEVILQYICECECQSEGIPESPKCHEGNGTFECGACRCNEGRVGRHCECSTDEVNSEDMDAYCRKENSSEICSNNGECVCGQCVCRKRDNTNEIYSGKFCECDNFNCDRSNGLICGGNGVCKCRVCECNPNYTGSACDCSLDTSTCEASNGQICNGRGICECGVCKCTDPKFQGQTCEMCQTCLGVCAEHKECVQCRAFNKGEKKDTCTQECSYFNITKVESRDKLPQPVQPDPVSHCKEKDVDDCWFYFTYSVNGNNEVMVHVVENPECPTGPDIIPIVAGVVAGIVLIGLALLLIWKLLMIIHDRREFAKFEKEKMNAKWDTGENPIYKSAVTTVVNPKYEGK
# Assay: U937/VCAM-1 cell adhesion test (adhesion of U937 cells to hVCAM-1(1-3)-IgG)
# Type: cell-based
# Conditions: inhibition of adhesion of human U937 cells (ATCC CRL 1593) to hVCAM-1(1-3)-IgG
# Description: A) U937/VCAM-1 Cell Adhesion Test
# The test method used for the activity of the compounds of the formula I on the interaction between VCAM-1 and VLA-4 is the assay described below, which is specific for this interaction. The cellular binding components, that is the VLA-4 integrins, are supplied in their natural form as surface molecules on human U937 cells (ATCC CRL 1593), which belong to the leukocytes group. The specific binding components used are genetically engineered recombinant soluble fusion proteins, consisting of the extracytoplasmic domain of human VCAM-1 and the constant region of a human immunoglobulin of the subclass IgG1.
# Assay for the Measurement of the Adhesion of U937 Cells (ATCC CRL 1593) to hVCAM-1 (1-3)-IgG
# 1. Preparation of Human VCAM-1(1-3)-IgG and Human CD4-IgG
# A genetic construct for the expression of the extracellular domain of human VCAM-1, combined with the genetic sequence of the heavy chain of human immunoglobulin IgG1 (hinge, CH2 and CH3 regions) (from Brian Seed, Massachusetts General Hospital, Boston, USA; cf. Damle and Aruffo, Proc. Natl. Acad. Sci. USA 1991, 88, 6403), was employed. The soluble fusion protein hVCAM-1(1-3)-IgG contained the three aminoterminal extracellular immunoglobulin-like domains of human VCAM-1 (Damle and Aruffo, Proc. Natl. Acad. Sci. USA 1991, 88, 6403). CD4-IgG (Zettlmeissl et al., DNA and Cell Biology 1990, 9, 347) served as a fusion protein for negative controls. The recombinant proteins were expressed as soluble proteins after DEAE/dextran-mediated DNA transfection in COS cells (ATCC CRL1651) according to standard procedures (Ausubel et al., Current protocols in molecular biology, John Wiley & Sons, Inc., 1994).
# 2. Assay for the Measurement of the Adhesion of U937 Cells to hVCAM-1(1-3)-IgG
# 2.1 96-well microtiter test plates (Nunc Maxisorb) were incubated at room temperature for 1 hour with 100 μl/well of a goat-anti-human IgG antibody solution (10 μg/ml in 50 mM tris, pH 9.5). After removal of the antibody solution, washing was carried out once with PBS.
# 2.2 150 μl/well of a blocking buffer (1% BSA in PBS) were incubated on the plates at room temperature for 0.5 hour. After removal of the blocking buffer, washing was carried out once with PBS.
# 2.3 100 μl per well of a cell culture supernatant of transfected COS cells were incubated on the plates at room temperature for 1.5 hours. The COS cells were transfected with a plasmid which codes for the three N-terminal immunoglobulin-like domains of VCAM-1, coupled to the Fc portion of human IgG1 (hVCAM-1 (1-3)-IgG). The content of hVCAM-1(1-3)-IgG was about 0.5-1 μg/ml. After removing the culture supernatant, washing was carried out once with PBS.
# 2.4 The plates were incubated at room temperature for 20 minutes with 100 μl/well of Fc receptor blocking buffer (1 mg/ml of γ-globulin, 100 mM NaCl, 100 μM MgCl2, 100 μM MnCl2, 100 μM CaCl2, 1 mg/ml of BSA in 50 mM HEPES, pH 7.5). After removal of the Fc receptor blocking buffer, washing was carried out once with PBS.
# 2.5 20 μl of binding buffer (100 μM NaCl, 100 μM MgCl2, 100 μM MnCl2, 100 μM CaCl2, 1 mg/ml of BSA in 50 mM HEPES, pH 7.5) were initially introduced, and the substances to be tested were added in 10 μl of binding buffer and incubated for 20 minutes. The controls used were antibodies against VCAM-1(BBT, No. BBA6) and against VLA-4(Immunotech, No. 0764).
# 2.6 U937 cells were incubated in Fc receptor blocking buffer for 20 minutes and then pipetted in at a concentration of 1×10^6/ml and in an amount of 100 μl per well ([…]).
# 2.7 The plates were slowly immersed at an angle of 45° in stop buffer (100 mM NaCl, 100 μM MgCl2, 100 μM MnCl2, 100 μM CaCl2 in 25 mM Tris, pH 7.5) and shaken off. The process was repeated.
# 2.8 50 μl/well of a dye solution ([…] of Hoechst Dye 33258, 4% formaldehyde, 0.5% Triton X-100 in PBS) were then incubated on the plates for 15 minutes. […]
row,SMILES,IC50 [nM]
1,"COc1ccc([C@H](CC(=O)O)NC(=O)[C@H](CC2CC2)N2C(=O)N(Cc3ccc(NC(=O)Nc4ccccc4C)cc3)C3(CCCCC3)C2=O)cc1OC [Example 39, (S)-3-((S)-2-(4,4-Pentamethylene-3-(4-(3-(2-methylphenyl)ureido)benzyl)-2,5-dioxoimidazolidin-1-yl)-2-cyclopropylmethylacetylamino)-3-(3,4-dimethoxyphenyl)propionic acid]",0.8
2,"COc1ccc([C@H](CC(=O)O)NC(=O)[C@H](CC(C)C)N2C(=O)N(Cc3ccc(NC(=O)Nc4ccccc4C)cc3)C3(CCCCC3)C2=O)cc1OC [Example 33, (S)-3-((S)-2-(4,4-Pentamethylene-3-(4-(3-(2-methylphenyl)ureido)benzyl)-2,5-dioxoimidazolidin-1-yl)-2-(2-methylpropyl)acetylamino)-3-(3,4-dimethoxyphenyl)propionic acid sodium salt]",1.3
3,"CC(C)C[C@@H](C(=O)N[C@H](C)CC(=O)O)N1C(=O)N(Cc2ccc(NC(=O)Nc3ccccc3)cc2)C2(CCCCC2)C1=O [Example 3, (R)-3-((S)-2-(4,4-Pentamethylene-3-(4-(3-phenylureido)benzyl)-2,5-dioxoimidazolidin-1-yl)-2-(2-methylpropyl)acetylamino)-3-methylpropionic acid]",17
4,"COc1ccc([C@H](CC(=O)O)NC(=O)[C@H](CC2CC2)N2C(=O)N(Cc3ccc(NC(=O)Nc4ccccc4C)cc3)C3(CCCCC3)C2=O)c(OC)c1 [Example 41, (S)-3-((S)-2-(4,4-Pentamethylene-3-(4-(3-(2-methylphenyl)ureido)benzyl)-2,5-dioxoimidazolidin-1-yl)-2-cyclopropylmethylacetylamino)-3-(2,4-dimethoxyphenyl)propionic acid sodium salt]",2.3
5,"CC(C)C[C@H](CC(=O)O)NC(=O)[C@H](CC(C)C)N1C(=O)N(Cc2ccc(NC(=O)Nc3ccccc3)cc2)C2(CCCCC2)C1=O [Example 4, (R)-3-((S)-2-(4,4-Pentamethylene-3-(4-(3-phenylureido)benzyl)-2,5-dioxoimidazolidin-1-yl)-2-(2-methylpropyl)acetylamino)-3-(2-methylpropyl)propionic acid]",85.4
6,"COc1ccc([C@H](CC(=O)O)NC(=O)[C@H](CC(C)C)N2C(=O)N(Cc3ccc(NC(=O)Nc4ccccc4)cc3)C3(CCCCC3)C2=O)c(OC)c1 [Example 19, (S)-3-((S)-2-(4,4-Pentamethylene-3-(4-(3-phenylureido)benzyl)-2,5-dioxoimidazolidin-1-yl)-2-(2-methylpropyl)acetylamino)-3-(2,4-dimethoxyphenyl)propionic acid tromethamine salt]",3
7,"COc1ccc([C@H](CC(=O)O)NC(=O)[C@H](CC(C)C)N2C(=O)N(Cc3ccc(NC(=O)Nc4ccccc4C)cc3)C3(CCCCC3)C2=O)c(OC)c1 [Example 30, (S)-3-((S)-2-(4,4-Pentamethylene-3-(4-(3-(2-methylphenyl)ureido)benzyl)-2,5-dioxoimidazolidin-1-yl)-2-(2-methylpropyl)acetylamino)-3-(2,4-dimethoxyphenyl)propionic acid sodium salt]",3.6
8,"Cc1ccccc1NC(=O)Nc1ccc(CN2C(=O)N([C@@H](CC(C)C)C(=O)N[C@H](C)CC(=O)O)C(=O)C23CCCCC3)cc1 [Example 9, (R)-3-((S)-2-(4,4-Pentamethylene-3-(4-(3-(2-methylphenyl)ureido)benzyl)-2,5-dioxoimidazolidin-1-yl)-2-(2-methylpropyl)acetylamino)-3-methylpropionic acid]",2.2
9,"COc1ccc([C@H](CC(=O)O)NC(=O)[C@H](CC(C)C)N2C(=O)N(Cc3ccc(NC(=O)Nc4ccccc4)cc3)C3(CCCCC3)C2=O)cc1 [Example 17, (S)-3-((S)-2-(4,4-Pentamethylene-3-(4-(3-phenylureido)benzyl)-2,5-dioxoimidazolidin-1-yl)-2-(2-methylpropyl)acetylamino)-3-(4-methoxyphenyl)propionic acid tromethamine salt]",1.9
10,"COc1ccc([C@H](CC(=O)O)NC(=O)[C@H](CC(C)C)N2C(=O)N(Cc3ccc(NC(=O)Nc4ccccc4)cc3)C3(CCCCC3)C2=O)cc1OC [Example 20, (S)-3-((S)-2-(4,4-Pentamethylene-3-(4-(3-phenylureido)benzyl)-2,5-dioxoimidazolidin-1-yl)-2-(2-methylpropyl)acetylamino)-3-(3,4-dimethoxyphenyl)propionic acid]",1.6
11,"Cc1ccccc1NC(=O)Nc1ccc(CN2C(=O)N([C@@H](CC(C)C)C(=O)N[C@@H](CC(=O)O)c3ccccc3)C(=O)C23CCCCC3)cc1 [Example 23, (S)-3-((S)-2-(4,4-Pentamethylene-3-(4-(3-(2-methylphenyl)ureido)benzyl)-2,5-dioxoimidazolidin-1-yl)-2-(2-methylpropyl)acetylamino)-3-phenylpropionic acid tromethamine salt]",5.5
12,"Cc1ccccc1NC(=O)Nc1ccc(CN2C(=O)N([C@@H](CC(C)C)C(=O)N[C@H](C)CC(=O)O)C(=O)C23CCCCC3)cc1 [Example 24, (R)-3-((S)-2-(4,4-Pentamethylene-3-(4-(3-(2-methylphenyl)ureido)benzyl)-2,5-dioxoimidazolidin-1-yl)-2-(2-methylpropyl)acetylamino)-3-methylpropionic acid tromethamine salt]",1.7
13,"COc1ccc([C@H](CC(=O)O)NC(=O)[C@H](CC(C)C)N2C(=O)N(Cc3ccc(NC(=O)Nc4ccccc4)cc3)C3(CCCCC3)C2=O)c(OC)c1 [Example 18, (S)-3-((S)-2-(4,4-Pentamethylene-3-(4-(3-phenylureido)benzyl)-2,5-dioxoimidazolidin-1-yl)-2-(2-methylpropyl)acetylamino)-3-(2,4-dimethoxyphenyl)propionic acid]",2.4
14,"COc1ccc([C@H](CC(=O)O)NC(=O)[C@H](CC(C)C)N2C(=O)N(Cc3ccc(NC(=O)Nc4ccccc4C)cc3)C3(CCCCC3)C2=O)c(OC)c1 [Example 28, (S)-3-((S)-2-(4,4-Pentamethylene-3-(4-(3-(2-methyphenyl)ureido)benzyl)-2,5-dioxoimidazolidin-1-yl)-2-(2-methylpropyl)acetylamino)-3-(2,4-dimethoxyphenyl)propionic acid]",2.1
15,"CC(C)C[C@@H](C(=O)N[C@@H](CC(=O)O)c1ccccc1)N1C(=O)N(Cc2ccc(NC(=O)Nc3ccccc3)cc2)C2(CCCCC2)C1=O [Example 2, (S)-3-((S)-2-(4,4-Pentamethylene-3-(4-(3-phenylureido)benzyl)-2,5-dioxoimidazolidin-1-yl)-2-(2-methylpropyl)acetylamino)-3-phenylpropionic acid tromethamine salt]",4.5
